Laboratory results from publication PMC8508694, “Insights into the Genetic Variations of Human Cytochrome P450 2C9: Structural Analysis, Characterization and Comparison” (International Journal of Molecular Sciences, 2021).

Experiments:
CYP2C9*8 = biological target: T1, CYP2C9*8 (Homo sapiens, UniProt P11712, R150H/V490I); test: ([…] Å) and ITC; assay type: binding
T1 construct: residues 1 to 23 (N-terminal transmembrane anchor) replaced with MAKKT, V490I, C-terminal four-histidine tag

CYP2C9*3 = biological target: T2, CYP2C9*3 (Homo sapiens, UniProt P11712, I359L/V490I); test: ITC; assay type: binding
T2 construct: residues 1 to 23 (N-terminal transmembrane anchor) replaced with MAKKT, V490I, C-terminal four-histidine tag
T2 sequence (P11712 24-490 I359L/V490I): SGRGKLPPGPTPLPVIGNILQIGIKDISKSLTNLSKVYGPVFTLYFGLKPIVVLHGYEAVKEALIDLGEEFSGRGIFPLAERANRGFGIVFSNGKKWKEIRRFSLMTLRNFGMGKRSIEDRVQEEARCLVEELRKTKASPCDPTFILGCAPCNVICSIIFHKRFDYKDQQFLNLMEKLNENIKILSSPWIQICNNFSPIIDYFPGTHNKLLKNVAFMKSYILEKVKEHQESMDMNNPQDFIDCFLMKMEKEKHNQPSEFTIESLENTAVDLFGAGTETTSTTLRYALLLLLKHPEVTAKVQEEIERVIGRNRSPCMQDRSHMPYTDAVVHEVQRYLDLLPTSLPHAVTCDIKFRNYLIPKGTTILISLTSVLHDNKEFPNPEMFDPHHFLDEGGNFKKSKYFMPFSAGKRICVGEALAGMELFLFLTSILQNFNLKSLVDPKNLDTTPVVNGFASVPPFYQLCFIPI

T1 sequence (P11712 24-490 R150H/V490I): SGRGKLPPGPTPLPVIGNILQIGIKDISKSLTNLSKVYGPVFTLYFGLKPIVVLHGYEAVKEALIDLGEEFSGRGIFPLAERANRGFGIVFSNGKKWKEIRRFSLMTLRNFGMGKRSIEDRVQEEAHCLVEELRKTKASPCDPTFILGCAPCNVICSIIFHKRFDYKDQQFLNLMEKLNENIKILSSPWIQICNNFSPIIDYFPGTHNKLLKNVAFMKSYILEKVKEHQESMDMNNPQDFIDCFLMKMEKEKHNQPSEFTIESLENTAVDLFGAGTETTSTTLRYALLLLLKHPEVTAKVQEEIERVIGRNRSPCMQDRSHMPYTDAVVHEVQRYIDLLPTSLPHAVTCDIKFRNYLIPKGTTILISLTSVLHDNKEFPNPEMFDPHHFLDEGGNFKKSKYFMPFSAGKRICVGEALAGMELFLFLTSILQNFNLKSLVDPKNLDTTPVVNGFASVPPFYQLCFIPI

Structure (SMILES): CCCCc1nc(Cl)c(CO)n1Cc1ccc(-c2ccccc2-c2nn[nH]n2)cc1 [losartan]
- Kd (CYP2C9*8): 8.95 ± 0.97 µM
- Kd (CYP2C9*3): 24.5 ± 2.7 µM
